Measurements taken from the NIST ThermoML archive (doi:10.1021/acs.jced.9b00399).

Legend:
[1] = Gas, isochoric method
[2] = xn = mol fraction of the nth substance listed; settings: Gas, isochoric method, x1 = 0.6992

[HH] [hydrogen]
[1]
Settings | mass density [kg/m3]
722.4 K, 20262 kPa | 6.45
733.6 K, 20559 kPa | 6.449
743.1 K, 20811 kPa | 6.447
753.6 K, 21086 kPa | 6.447
763.9 K, 21370 kPa | 6.445
773.4 K, 21625 kPa | 6.445
784.3 K, 21917 kPa | 6.444
792.8 K, 22153 kPa | 6.443
803.8 K, 22451 kPa | 6.442
812.9 K, 22702 kPa | 6.442
822.2 K, 22963 kPa | 6.441
834.3 K, 23222 kPa | 6.422
844.3 K, 23469 kPa | 6.412
854.7 K, 23640 kPa | 6.381
863.3 K, 23818 kPa | 6.366
874.1 K, 24069 kPa | 6.354
883.3 K, 24272 kPa | 6.344
892.3 K, 24413 kPa | 6.337
904.5 K, 24668 kPa | 6.324
914.1 K, 24899 kPa | 6.319
924 K, 25112 kPa | 6.313

[HH] [hydrogen] + O=C=O
[2]
Settings | mass density [kg/m3]
673.4 K, 20652 kPa | 50.77
683.6 K, 20986 kPa | 50.78
693.5 K, 21304 kPa | 50.79
703.3 K, 21638 kPa | 50.85
713.9 K, 21981 kPa | 50.87
723.3 K, 22282 kPa | 50.87
733.9 K, 22610 kPa | 50.86
743.9 K, 22909 kPa | 50.82
753.6 K, 23216 kPa | 50.82

N#N [nitrogen]
[1]
Settings | mass density [kg/m3]
727.3 K, 20352 kPa | 86.58
805.8 K, 22603 kPa | 86.28
874.6 K, 24580 kPa | 86.14
927.1 K, 26090 kPa | 86.03

O [water]
[1]
Settings | mass density [kg/m3]
724.1 K, 15981 kPa | 58.3
773.1 K, 17804 kPa | 58.58
826.1 K, 19727 kPa | 58.95
877.1 K, 21161 kPa | 58.02
927.1 K, 22542 kPa | 57.4
